Measurements taken from patent US12708649B2, “Compositions and methods for improving skin health and for the treatment and prevention of diseases, disorders and conditions associated with fungi and other pathogenic microbes” (priority 2020, dated 2026).
≈ marks a conversion by molar mass, not a printed value. Like-named read-outs stand apart in the source and are kept apart here.

Assays:
DB00376 = assay: Antibiotic MIC tests; format: cell-based
DB05646 = assay: Antibiotic MIC tests; format: cell-based, Alcaligenes faecalis; conditions: for MIC: Alcaligenes faecalis
E. coli ATCC 25922 = conditions: MIC; cited from earlier work
DB10033 = assay: Antibiotic MIC tests; format: cell-based, Bacillus altitudinis; conditions: for MIC: Bacillus altitudinis
DB02473 = assay: Antibiotic MIC tests; format: cell-based
[1] = 24 h, read-out: MIC, DB00376 24 hr
[2] = 48 h, read-out: MIC, DB00376 48 hr
[3] = 24 h, read-out: MIC, DB05646 24 hr
[4] = 48 h, read-out: MIC, DB05646 48 hr
[5] = 24 h, read-out: MIC, DB10033 24 hr
[6] = 48 h, read-out: MIC, DB10033 48 hr
[7] = 24 h; read-out: MIC, DB02473 24 hr
[8] = 48 h; read-out: MIC, DB02473 48 hr

| Compound | MIC, DB00376 24 hr (DB00376) [µg/mL] | MIC, DB00376 48 hr (DB00376) [µg/mL] | MIC, DB05646 24 hr (DB05646) [µg/mL] | MIC, DB05646 48 hr (DB05646) [µg/mL] | E. coli ATCC 25922 CLSI QC Range (E. coli ATCC 25922) | MIC, DB10033 24 hr (DB10033) [µg/mL] | MIC, DB10033 48 hr (DB10033) [µg/mL] | MIC, DB02473 24 hr (DB02473; 24 hr) [µg/mL] | MIC, DB02473 48 hr (DB02473; 48 hr) [µg/mL] | MIC (DB00376; [1]) [µg/mL] | MIC (DB00376; [2]) [µg/mL] | MIC (DB05646; [3]) [µg/mL] | MIC (DB05646; [4]) [µg/mL] | MIC (DB10033; [5]) [µg/mL] | MIC (DB10033; [6]) [µg/mL] | MIC (DB02473; [7]) [µg/mL] | MIC (DB02473; [8]) [µg/mL] | MIC (DB02473; 24 h, read-out: MIC, DB02473 24 hr) [µg/mL] | MIC (DB02473; 48 h, read-out: MIC, DB02473 48 hr) [µg/mL] |
| --- | --- | --- | --- | --- | --- | --- | --- | --- | --- | --- | --- | --- | --- | --- | --- | --- | --- | --- | --- |
| Polymyxin B | 8 | 16 | 1 | 1 | 0.25 to 2 µg/mL | 8 | 16 | 4 | 8 |  |  |  |  |  |  |  |  |  |  |
| CC[C@H]1OC(=O)[C@H](C)[C@@H](O[C@H]2C[C@@](C)(OC)[C@@H](O)[C@H](C)O2)[C@H](C)[C@@H](O[C@@H]2O[C@H](C)C[C@H](N(C)C)[C@H]2O)[C@](C)(O)C[C@@H](C)CN(C)[C@H](C)[C@@H](O)[C@]1(C)O [Azithromycin] |  |  |  |  |  |  |  |  |  | 0.25 (≈ 0.334 µM) | 1 (≈ 1.34 µM) | 2 (≈ 2.67 µM) | 2 (≈ 2.67 µM) | 0.2 (≈ 0.267 µM) | 0.2 (≈ 0.267 µM) | 0.5 (≈ 0.668 µM) |  |  |  |
| CCC[C@@H]1C[C@@H](C(=O)N[C@@H]([C@H]2O[C@H](SC)[C@H](O)[C@@H](O)[C@H]2O)[C@H](C)Cl)N(C)C1 [Clindamycin] |  |  |  |  |  |  |  |  |  | 1 (≈ 2.35 µM) | 4 (≈ 9.41 µM) | > 64 | > 64 | 0.125 (≈ 0.294 µM) | 2 (≈ 4.71 µM) | 0.5 (≈ 1.18 µM) | 2 (≈ 4.71 µM) |  |  |
| O=C(O)c1cn(C2CC2)c2cc(N3CCNCC3)c(F)cc2c1=O [Ciprofloxacin] |  |  |  |  |  |  |  |  |  | 0.0625 (≈ 0.189 µM) | 0.5 (≈ 1.51 µM) | 2 (≈ 6.04 µM) | 2 (≈ 6.04 µM) | 0.125 (≈ 0.377 µM) | 1 (≈ 3.02 µM) | ≤ 0.06 | 0.125 (≈ 0.377 µM) |  |  |
| NCC[C@H](O)C(=O)N[C@@H]1C[C@H](N)[C@@H](O[C@H]2O[C@H](CN)[C@@H](O)[C@H](O)[C@H]2O)[C@H](O)[C@H]1O[C@H]1O[C@H](CO)[C@@H](O)[C@H](N)[C@H]1O [Amikacin] |  |  |  |  | 0.5-4^ μg/mL |  |  |  |  | 0.5 (≈ 0.854 µM) | 1 (≈ 1.71 µM) | 4 (≈ 6.83 µM) | 4 (≈ 6.83 µM) | 0.5 (≈ 0.854 µM) | 2 (≈ 3.42 µM) | 0.25 (≈ 0.427 µM) | 0.25 (≈ 0.427 µM) |  |  |
| CN(C)c1ccc(O)c2c1C[C@H]1C[C@H]3[C@H](N(C)C)C(O)=C(C(N)=O)C(=O)[C@@]3(O)C(O)=C1C2=O [Minocycline] |  |  |  |  |  |  |  |  |  | 0.0625 (≈ 0.137 µM) | 0.25 (≈ 0.546 µM) | 2 (≈ 4.37 µM) | 4 (≈ 8.74 µM) | 2 (≈ 4.37 µM) | 2 (≈ 4.37 µM) | 0.125 (≈ 0.273 µM) | 0.5 (≈ 1.09 µM) |  |  |
| O=C(N[C@H](CO)[C@H](O)c1ccc([N+](=O)[O-])cc1)C(Cl)Cl [Chloramphenicol] |  |  |  |  |  |  |  |  |  | 2 (≈ 6.19 µM) | 8 (≈ 24.8 µM) | 8 (≈ 24.8 µM) | 16 (≈ 49.5 µM) | 2 (≈ 6.19 µM) | 4 (≈ 12.4 µM) |  |  | 4 (≈ 12.4 µM) | 16 (≈ 49.5 µM) |
| CO/N=C(\C(=O)N[C@@H]1C(=O)N2C(C(=O)O)=C(CSc3nc(=O)c(=O)[nH]n3C)CS[C@H]12)c1csc(N)n1 [Ceftriaxone] |  |  |  |  | 0.03 to 0.12 µg/mL |  |  |  |  | 2 (≈ 3.61 µM) | 4 (≈ 7.21 µM) | 0.25 (≈ 0.451 µM) | 0.25 (≈ 0.451 µM) | 16 (≈ 28.9 µM) | 16 (≈ 28.9 µM) | 4 (≈ 7.21 µM) | 16 (≈ 28.9 µM) |  |  |
| CN(C)[C@@H]1C(O)=C(C(N)=O)C(=O)[C@@]2(O)C(O)=C3C(=O)c4c(O)cccc4[C@@](C)(O)[C@H]3C[C@@H]12 [Tetracycline] |  |  |  |  |  |  |  |  |  | 0.0625 (≈ 0.141 µM) |  | 4 (≈ 9 µM) | 16 (≈ 36 µM) |  |  |  |  |  |  |
| Neomycin | 0.125 | 0.25 | 8 | 16 |  | 0.125 | 0.125 | ≤0.06 | 0.25 |  |  |  |  |  |  |  |  |  |  |
| [H]/N=C(\N/C(=N/[H])NCCCCCCNC(=N)NC(=N)Nc1ccc(Cl)cc1)Nc1ccc(Cl)cc1 [Chlorhexidine] |  |  |  |  |  |  |  |  |  | 0.5 (≈ 0.989 µM) | 1 (≈ 1.98 µM) | 32 (≈ 63.3 µM) | 32 (≈ 63.3 µM) | 1 (≈ 1.98 µM) | 2 (≈ 3.96 µM) | 1 (≈ 1.98 µM) |  |  |  |
| C[C@H]1COc2c(N3CCN(C)CC3)c(F)cc3c(=O)c(C(=O)O)cn1c23 [Levofloxacin] |  |  |  |  |  |  |  |  |  | ≤ 0.06 | 0.125 (≈ 0.346 µM) | 1 (≈ 2.77 µM) | 1 (≈ 2.77 µM) | ≤ 0.06 | 0.125 (≈ 0.346 µM) | ≤ 0.06 |  |  |  |
| C/C(=C\C(=O)OCCCCCCCCC(=O)O)C[C@@H]1OC[C@H](C[C@@H]2O[C@H]2[C@@H](C)[C@H](C)O)[C@@H](O)[C@H]1O [Mupirocin] |  |  |  |  |  |  |  |  |  | 2 (≈ 3.99 µM) | 16 (≈ 32 µM) | 64 (≈ 128 µM) | 128 (≈ 256 µM) | 8 (≈ 16 µM) | 64 (≈ 128 µM) | ≤ 1 | ≤ 1 |  |  |
| CO/N=C(\C(=O)N[C@@H]1C(=O)N2C(C(=O)[O-])=C(C[N+]3(C)CCCC3)CS[C@H]12)c1csc(N)n1 [Cefepime] |  |  |  |  | 0.016 to 0.12 µg/mL |  |  |  |  | 1 (≈ 2.08 µM) | 64 (≈ 133 µM) | 4 (≈ 8.32 µM) | 8 (≈ 16.6 µM) | 64 (≈ 133 µM) | 64 (≈ 133 µM) | 2 (≈ 4.16 µM) | 4 (≈ 8.32 µM) |  |  |
| Amoxicillin/Clavulanate (4:1) | ≤0.06 | ≤0.06 | 32 | 32 |  | ≤0.06 | ≤0.06 | ≤0.06 | ≤0.06 |  |  |  |  |  |  |  |  |  |  |
| C[C@H]1[C@H](NC(=O)/C(=N\OC(C)(C)C(=O)O)c2csc(N)n2)C(=O)N1S(=O)(=O)O [Aztreonam] |  |  |  |  | 0.06 to 0.25 µg/mL |  |  |  |  | 16 (≈ 36.7 µM) | > 64 | 32 (≈ 73.5 µM) | 32 (≈ 73.5 µM) | > 64 | > 64 | > 64 | > 64 |  |  |
| Povidone-iodine | >1024 | >1024 | >1024 | >1024 |  | >1024 | >1024 | >1024 | >1024 |  |  |  |  |  |  |  |  |  |  |
| CC[C@H]1OC(=O)[C@H](C)[C@@H](O[C@H]2C[C@@](C)(OC)[C@@H](O)[C@H](C)O2)[C@H](C)[C@@H](O[C@@H]2O[C@H](C)C[C@H](N(C)C)[C@H]2O)[C@](C)(O)C[C@@H](C)C(=O)[C@H](C)[C@@H](O)[C@]1(C)O [Erythromycin] |  |  |  |  |  |  |  |  |  | 0.125 (≈ 0.17 µM) | 0.5 (≈ 0.681 µM) | 16 (≈ 21.8 µM) | 64 (≈ 87.2 µM) | ≤ 0.06 | ≤ 0.06 |  | 0.125 (≈ 0.17 µM) |  |  |
| C[C@@H](O)[C@H]1C(=O)N2C(C(=O)O)=C(S[C@@H]3CN[C@H](C(=O)N(C)C)C3)[C@H](C)[C@H]12 [Meropenem] |  |  |  |  | 0.008 to 0.06 µg/mL |  |  |  |  | ≤ 0.06 | ≤ 0.06 | ≤ 0.06 | ≤ 0.06 | ≤ 0.06 | 0.125 (≈ 0.326 µM) | ≤ 0.06 | ≤ 0.06 |  |  |
